Data on 18 molecules can be found in patent publication US20080234233A1, “MEDICAMENT FOR TREATMENT OF NEURODEGENERATIVE DISEASES” (INSTITUTE OF MEDICINAL MOLECULAR DESIGN INC., priority 2002, published 2008).

The subject of data set [1] is AP-1 activation. Put plainly: Inhibition against AP-1 activation by TNF α stimulation, luciferase reporter assay in HeLa. In kind it is cell-based, human. Particulars: TNF-α 40 ng/ml, 4 hours. Here is the method:
Measurement of Inhibition Against AP-1 Activation by TNF α Stimulation
Using a transfection reagent(Effectene; QIAGEN), the human uterine cancer cell strain HeLa was transfected with a plasmid(pAP-1-Luc Reporter Plasmid: […]) integrated with an oligonucleotide having seven tandem copies of AP-1 binding sequences(TGACTAA) on an upstream region of firefly luciferase gene(Luc) according to the QIAGEN's protocol, and the cells were incubated for 6 to 24 hours. After addition of TNF-α (40 ng/ml) in the presence or absence of a test compound, the cells were incubated for 4 hours, and intracellular luciferase activity was measured by using PicaGene LT(TOYO INK MFG Co., Ltd.) and a chemical luminescence measurement apparatus([…]luor Plus; TECAN). The inhibitory ratio was measured as a ratio relative to the value of the luciferase activity in the absence of the test compound.

A further data set has as its system NF-κ B activation. Nature of the data set: Inhibitory activity of NF-κB activation, luciferase reporter assay under TNF-α stimulation in HepG2. In kind it is cell-based, human. The conditions noted are these: HepG2, TNF-α 40 ng/ml, 4 hours; for inhibition at 1 µg/mL / inhibition at 10 µg/mL: Homo sapiens, read-out: Inhibitory rate against NF-κB activation (%). The procedure, abridged:
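HepG2 cells transiently transfected with luciferase reporter carrying five tandem NF-κB binding sites, then stimulated with TNF-α (40 ng/ml) ± compound for 4 hours. Luminescent luciferase activity measured; inhibition expressed relative to activity without compound.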

The test system of data set [2] is AP-1 activation. Nature of the data set: Inhibition against AP-1 activation by forced expression of MEKK-1, luciferase reporter assay in HepG2. In kind it is cell-based, human. Particulars: HepG2, MEKK-1 forced expression, 24 hours. Here is the method:
Measurement of Inhibition Against AP-1 Activation by Forced Expression of MEKK-1
Using a transfection reagent (Effectene; QIAGEN), the human hepatoma cell strain HepG2 was cotransfected with a plasmid (pAP-1-Luc Reporter Plasmid: […]) integrated with an oligonucleotide having seven tandem copies of AP-1 binding sequences (TGACTAA) on an upstream region of firefly luciferase gene (Luc) and the MEKK-1 expression plasmid (pFCMEKK: […]) according to the QIAGEN's protocol, and the cells were incubated for 20 to 24 hours. Then the cells were incubated in the presence or absence of a test compound for 24 hours, and then intracellular luciferase activity was measured by using PicaGene LT (TOYO INK MFG Co., Ltd.) and a chemical luminescence measurement apparatus ([…]luor Plus; TECAN). The inhibitory ratio was measured as a ratio relative to the value of the luciferase activity in the absence of the test compound.

[3] abbreviates: Homo sapiens, Drug concentration at 10 μg/mL, read-out: Inhibitory rate against AP-1 activation(%).

Molecules are shown by their SMILES.

With `O=C(Nc1cc(C(F)(F)F)cc(C(F)(F)F)c1)c1cc(I)ccc1O` [compound 7, N-[3,5-bis(trifluoromethyl)phenyl]-2-hydroxy-5-iodobenzamide], the inhibition at 1 µg/mL in the data set with AP-1 activation [1] (Homo sapiens, Drug concentration at 1 μg/mL, read-out: Inhibitory rate against AP-1 activation(%)) came to 25.4%; in the data set on NF-κ B activation (Drug concentration at 1 μg/mL), 86.6%. For the same molecule, the inhibition at 10 µg/mL with AP-1 activation [1] (setting [3]) was found to be 82.4%; in the data set with NF-κ B activation (Drug concentration at 10 μg/mL) it was 85.4%.
Turning to `O=C(Nc1cc(C(F)(F)F)cc(C(F)(F)F)c1)c1cc(/C=C/c2ccccc2)ccc1O` [compound 19], the “Inhibitory rate against AP-1 activation(%)” value in the data set with AP-1 activation [1] (Drug concentration at 10 μg/mL) was 33.9%. Moreover, the results for the “Inhibitory rate against NF-κB activation (%)” value in the data set on NF-κ B activation (Drug concentration at 1 μg/mL) and with NF-κ B activation (Drug concentration at 10 μg/mL) were 95.5% and 96.9%, respectively.
Take `O=C(Nc1cc(C(F)(F)F)cc(C(F)(F)F)c1)c1cc(C#Cc2ccccc2)ccc1O` [compound 22, N-[3,5-bis(trifluoromethyl)phenyl]-2-hydroxy-5-(phenylethynyl)-benzamide]: the inhibition at 10 µg/mL in the data set on AP-1 activation [1] (setting [3]) was determined as 44.1%; in the data set with NF-κ B activation (Drug concentration at 10 μg/mL) it was 97.1%. In addition, the inhibition at 1 µg/mL with NF-κ B activation (Drug concentration at 1 μg/mL) was 83.9%.
On to `O=C(Nc1cc(C(F)(F)F)cc(C(F)(F)F)c1)c1cc(-c2ccccc2)ccc1O` [compound 23], for which the “Inhibitory rate against AP-1 activation(%)” value in the data set on AP-1 activation [1] (Drug concentration at 1 μg/mL) is given as 18.1%; in the data set with AP-1 activation [1] (Drug concentration at 10 μg/mL), 60.9%. The “Inhibitory rate against NF-κB activation (%)” value with NF-κ B activation (Drug concentration at 1 μg/mL) came out at 91.8%; in the data set on NF-κ B activation (Drug concentration at 10 μg/mL) it was 96.8%.
With `O=C(Nc1cc(C(F)(F)F)cc(C(F)(F)F)c1)c1cc(-c2ccsc2)ccc1O` [compound 29], the “Inhibitory rate against AP-1 activation(%)” value in the data set on AP-1 activation [1] (Drug concentration at 10 μg/mL) is reported as 51.5%. The “Inhibitory rate against NF-κB activation (%)” value in the data set with NF-κ B activation (Drug concentration at 1 μg/mL) came to 81.7%; with NF-κ B activation (Drug concentration at 10 μg/mL) it was 92.9%.
In turn, `O=C(Nc1cc(C(F)(F)F)cc(C(F)(F)F)c1)c1cc(C(=O)N2CCC(Cc3ccccc3)CC2)ccc1O` [compound 40, N-[3,5-Bis(trifluoromethyl)phenyl]-2-hydroxy-5-(4-benzylpiperidine-1-carbonyl)-benzamide] had a melting point of 179 to 180 °C. The inhibition at 1 µg/mL with NF-κ B activation (Drug concentration at 1 μg/mL) was determined as 44.9%. Besides, in the data set with NF-κ B activation (Drug concentration at 10 μg/mL), the inhibition at 10 µg/mL was found to be 96%.
As to `CC(=O)Nc1cc(O)c(C(=O)Nc2cc(C(F)(F)F)cc(C(F)(F)F)c2)cc1Cl` [compound 50, 4-Acetylamino-N-[3,5-bis(trifluoromethyl)phenyl]-5-chloro-2-hydoxybenzamide], the “Inhibitory ratio of AP-1 activation(%)” value was 90.7% in the data set with AP-1 activation [2] (Drug concentration 1 μM) and 99.4% in the data set on AP-1 activation [2] (Drug concentration 1 μg/mL). Also, the “Inhibitory rate against NF-κB activation (%)” value in the data set with NF-κ B activation (Drug concentration at 1 μg/mL) came out at 69.9%; in the data set with NF-κ B activation (Drug concentration at 10 μg/mL), 96.0%.
`O=C(Nc1cc(C(F)(F)F)cc(C(F)(F)F)c1)c1cc(Cl)cnc1O` [compound 75]: the “Inhibitory rate against AP-1 activation(%)” value in the data set on AP-1 activation [1] (Drug concentration at 1 μg/mL) is 33.3%; with AP-1 activation [1] (Drug concentration at 10 μg/mL), 56.7%. Besides, the “Inhibitory rate against NF-κB activation (%)” value in the data set with NF-κ B activation (Drug concentration at 1 μg/mL) is 58.1%; in the data set with NF-κ B activation (Drug concentration at 10 μg/mL), 82.2%.
Turning to `CC(=O)Oc1ccccc1C(=O)Nc1cc(Cl)cc(Cl)c1` [compound 120, 2-acetoxy-N-(3,5-dichlorophenyl)benzamide], the melting point is 218 to 219 °C. Also, the inhibition at 1 µg/mL in the data set on NF-κ B activation (Drug concentration at 1 μg/mL) is 88.6%. Besides, the inhibition at 10 µg/mL in the data set with NF-κ B activation (Drug concentration at 10 μg/mL) was 97.5%.
Take `O=C(Nc1cc(Cl)cc(Cl)c1)c1cc(F)ccc1O` [compound 124]: in the data set on AP-1 activation [1] (Drug concentration at 10 μg/mL), the “Inhibitory rate against AP-1 activation(%)” value was determined as 67.7%. The entries for the “Inhibitory rate against NF-κB activation (%)” value in the data set with NF-κ B activation (Drug concentration at 1 μg/mL) and in the data set with NF-κ B activation (Drug concentration at 10 μg/mL) were 94.2% and 97.0%, respectively.
For `O=C(Nc1cc(Cl)cc(Cl)c1)c1cc(Cl)ccc1O` [compound 125], the “Inhibitory rate against AP-1 activation(%)” value in the data set with AP-1 activation [1] (Drug concentration at 1 μg/mL) amounted to 22.7%; in the data set on AP-1 activation [1] (Drug concentration at 10 μg/mL), 74.8%. For the same molecule, the “Inhibitory rate against NF-κB activation (%)” value is recorded as 84.5% in the data set with NF-κ B activation (Drug concentration at 1 μg/mL) and 96.8% in the data set on NF-κ B activation (Drug concentration at 10 μg/mL).
Taken in the same sequence, the figures for `O=C(Nc1cc(Cl)cc(Cl)c1)c1cc(Br)ccc1O` [compound 126] were 39.3%, 83.8%, 77.1% and 92.8%.
As to `O=C(Nc1cc(Cl)cc(Cl)c1)c1cc(I)ccc1O` [compound 127], in the data set with AP-1 activation [1] (Drug concentration at 10 μg/mL), the “Inhibitory rate against AP-1 activation(%)” value is 75.4%. The “Inhibitory rate against NF-κB activation (%)” value in the data set with NF-κ B activation (Drug concentration at 1 μg/mL) is reported as 85.4%; in the data set on NF-κ B activation (Drug concentration at 10 μg/mL), 97.1%.
As to `O=C(Nc1nc(C(F)(F)F)c(Br)s1)c1cc(Br)ccc1O` [compound 187], the “Inhibitory rate against AP-1 activation(%)” value in the data set with AP-1 activation [1] (Drug concentration at 10 μg/mL) came out at 49.9%. For the same molecule, the “Inhibitory rate against NF-κB activation (%)” value in the data set with NF-κ B activation (Drug concentration at 1 μg/mL) came out at 85.3%; with NF-κ B activation (Drug concentration at 10 μg/mL), 94.4%.
As for `CCc1sc(NC(=O)c2cc(Br)ccc2O)nc1C(C)(C)C` [compound 195, 5-Bromo-N-{4-[(1,1-dimethyl)ethyl]-5-ethylthiazol-2-yl}-2-hydroxybenzamide], the “Inhibitory ratio of AP-1 activation(%)” value in the data set on AP-1 activation [2] (Drug concentration 1 μM) was 91.2%; in the data set with AP-1 activation [2] (Drug concentration 1 μg/mL), 95.5%. Also, the inhibition at 1 µg/mL in the data set on NF-κ B activation (Drug concentration at 1 μg/mL) was 90.5%. Moreover, in the data set with NF-κ B activation (Drug concentration at 10 μg/mL), the inhibition at 10 µg/mL is 98.1%.
For `CC(C)(C)C(=O)c1sc(NC(=O)c2cc(Cl)ccc2O)nc1C(C)(C)C` [compound 199, 5-Chloro-N-{4-[(1,1-dimethyl)ethyl]-5-[(2,2-dimethyl)propionyl]thiazol-2-yl}-2-hydroxybenzamide], in the data set on AP-1 activation [2] (Drug concentration 1 μg/mL), the “Inhibitory ratio of AP-1 activation(%)” value amounted to 70.6%. The inhibition at 1 µg/mL in the data set on NF-κ B activation (Drug concentration at 1 μg/mL) stood at 96.4%. In the data set with NF-κ B activation (Drug concentration at 10 μg/mL), the inhibition at 10 µg/mL was found to be 98.4%.
As for `O=C(Nc1nc(-c2ccccc2)c(-c2ccccc2)s1)c1cc(Br)ccc1O` [compound 211], the “Inhibitory rate against AP-1 activation(%)” value in the data set with AP-1 activation [1] (Drug concentration at 10 μg/mL) worked out at 29.7%. Also, the “Inhibitory rate against NF-κB activation (%)” value in the data set with NF-κ B activation (Drug concentration at 10 μg/mL) was 67.0%.
As to `CCOC(=O)c1sc(NC(=O)c2cc(-c3ccccc3)ccc2O)nc1-c1ccccc1` [compound 225], in the data set with AP-1 activation [1] (Drug concentration at 10 μg/mL), the “Inhibitory rate against AP-1 activation(%)” value was 33.5%. In addition, the “Inhibitory rate against NF-κB activation (%)” value in the data set with NF-κ B activation (Drug concentration at 1 μg/mL) was 34.6%.
